Results reported in BindingDB's records for doi:10.1016/j.chembiol.2016.10.011 (H. Lee Moffitt Cancer Center & Research Institute, 2016).

Columns and labels:
[1] = target: T1, GDH/6PGL endoplasmic bifunctional protein (Homo sapiens, UniProt O95479); assay: H6PD Activity Assay
T1 sequence (O95479 whole entry): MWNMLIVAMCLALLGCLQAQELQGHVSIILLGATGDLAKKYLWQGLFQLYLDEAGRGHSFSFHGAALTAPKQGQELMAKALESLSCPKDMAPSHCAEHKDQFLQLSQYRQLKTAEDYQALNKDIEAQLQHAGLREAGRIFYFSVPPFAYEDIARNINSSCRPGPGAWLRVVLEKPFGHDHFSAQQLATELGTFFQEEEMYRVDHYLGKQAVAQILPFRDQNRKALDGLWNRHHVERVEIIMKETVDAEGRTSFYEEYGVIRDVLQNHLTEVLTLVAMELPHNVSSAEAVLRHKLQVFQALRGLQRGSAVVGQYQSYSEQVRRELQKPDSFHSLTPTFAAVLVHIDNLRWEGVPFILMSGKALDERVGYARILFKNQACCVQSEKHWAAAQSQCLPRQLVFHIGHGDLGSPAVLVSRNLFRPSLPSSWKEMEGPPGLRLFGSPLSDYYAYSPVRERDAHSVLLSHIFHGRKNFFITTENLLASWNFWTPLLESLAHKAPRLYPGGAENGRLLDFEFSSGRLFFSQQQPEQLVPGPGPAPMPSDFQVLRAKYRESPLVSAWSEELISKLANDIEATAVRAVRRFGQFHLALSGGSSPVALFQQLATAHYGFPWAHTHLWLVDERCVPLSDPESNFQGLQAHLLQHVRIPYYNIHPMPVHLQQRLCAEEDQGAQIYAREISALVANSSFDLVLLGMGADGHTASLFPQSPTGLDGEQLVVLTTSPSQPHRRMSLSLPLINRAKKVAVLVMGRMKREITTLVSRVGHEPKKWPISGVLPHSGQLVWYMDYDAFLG
Method: HEK293 H6PD-OE and HEK293 pellets were lysed and the lysate was quantified with the Bradford protein assay. Reaction mix containing galactose-6-phosphate (Gal6P) was combined with increasing concentrations of PARPi or DMSO. As an additional control, reaction mix without substrate was combined with HEK293 H6PD-OE lysate. Lysate from HEK293 or HEK293 H6PD-OE was added to each well to start the reactions. The absorbance at 340 nm (NADPH) was measured for 90 min at 10 min intervals. The 60 min data, which were within the linear range, was used for analysis. Background absorbance was subtracted and the H6PD activity of theHEK293 H6PD-OE lysates treated with PARPi was normalized to the DMSO control.

[2] = target: Poly [ADP-ribose] polymerase 1 (Homo sapiens, UniProt P09874); assay: In Vitro PARP1 Activity Assay
Method: Inhibition of PARP1 was assessed using the Universal Chemiluminescent PARPKit. Luminescence readings were normalized to controls and fit to a sigmoidaldose-response curve using GraphPad Prism 6 to determine IC50 values.

Chain of Poly [ADP-ribose] polymerase 1 (P09874 whole entry): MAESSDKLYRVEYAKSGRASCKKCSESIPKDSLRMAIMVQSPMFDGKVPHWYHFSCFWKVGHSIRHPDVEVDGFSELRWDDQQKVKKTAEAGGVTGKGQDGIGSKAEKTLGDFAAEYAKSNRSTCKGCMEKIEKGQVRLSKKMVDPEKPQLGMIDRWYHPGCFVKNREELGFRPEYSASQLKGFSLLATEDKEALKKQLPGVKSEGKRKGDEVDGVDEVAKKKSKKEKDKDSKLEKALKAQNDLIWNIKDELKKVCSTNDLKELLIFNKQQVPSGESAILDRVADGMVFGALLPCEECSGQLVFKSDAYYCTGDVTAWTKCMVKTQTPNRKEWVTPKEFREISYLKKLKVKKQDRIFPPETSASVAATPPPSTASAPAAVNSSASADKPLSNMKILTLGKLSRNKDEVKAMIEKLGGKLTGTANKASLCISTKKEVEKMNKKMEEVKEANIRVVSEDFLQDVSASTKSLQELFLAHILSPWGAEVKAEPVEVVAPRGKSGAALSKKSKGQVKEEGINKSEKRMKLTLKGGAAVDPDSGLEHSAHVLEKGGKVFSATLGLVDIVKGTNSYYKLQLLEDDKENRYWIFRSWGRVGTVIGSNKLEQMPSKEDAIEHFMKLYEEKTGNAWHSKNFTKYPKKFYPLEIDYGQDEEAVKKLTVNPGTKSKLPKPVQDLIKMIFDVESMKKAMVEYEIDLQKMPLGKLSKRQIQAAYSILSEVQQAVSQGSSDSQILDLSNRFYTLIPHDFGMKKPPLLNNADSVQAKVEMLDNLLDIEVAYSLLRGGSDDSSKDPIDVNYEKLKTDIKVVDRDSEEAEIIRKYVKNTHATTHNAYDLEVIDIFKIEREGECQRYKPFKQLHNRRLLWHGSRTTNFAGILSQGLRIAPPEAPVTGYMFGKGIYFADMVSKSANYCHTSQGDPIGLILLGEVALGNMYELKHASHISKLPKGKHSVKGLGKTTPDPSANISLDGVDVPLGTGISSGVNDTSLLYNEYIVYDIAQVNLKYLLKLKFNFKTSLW

Structure (SMILES) | IC50 [1] [nM] | IC50 [2] [nM]
CNCc1ccc(-c2[nH]c3cc(F)cc4c3c2CCNC4=O)cc1 [AG-014699] | 18000 | 
NCCCN1CCC[C@@H](c2ccc(-n3cc4cccc(C(N)=O)c4n3)cc2)C1 [c-Niraparib] |  | 48.4
NCCCC(=O)N1CCN(C(=O)c2cc(Cc3n[nH]c(=O)c4ccccc34)ccc2F)CC1 [c-Olaparib] |  | 5.9
CN(CCCN)Cc1ccc(-c2[nH]c3cc(F)cc4c3c2CCNC4=O)cc1 [c-Rucaparib] |  | 4.4
C[C@]1(c2nc3c(C(N)=O)cccc3[nH]2)CCCN1CCCN [c-Veliparib] |  | 8.4
